Test system: H3K27 methylation in G401 cell
Experiment: ELISA (H3K27 methylation) assay
Format: cell-based
Settings: Homo sapiens, G-401; ELISA Qualified assay (H3K27 methylation); read-out: (c) IC50 (μM), ELISA Qualified
Excerpt: ELISA (H3K27 Methylation) Assay

Row | SMILES | IC50 [µM]
1 | Fc1ccc2c(c1CNc1ncc(-c3ccncc3Cl)c3nncn13)CCO2 [Example 162, 8-(3-chloropyridin-4-yl)-N-((5-fluoro-2,3-dihydrobenzofuran-4-yl)methyl)-[1,2,4]triazolo[4,3-c]pyrimidin-5-amine] | 0.0273
2 | Cc1cc(C(=O)N(C)C)ncc1-c1cnc(NCc2c(F)ccc3c2CCO3)n2cnnc12 [Example 131, 5-(5-(((5-fluoro-2,3-dihydrobenzofuran-4-yl)methyl)amino)-[1,2,4]triazolo[4,3-c]pyrimidin-8-yl)-N,N,4-trimethylpicolinamide] | 0.0033
3 | CS(=O)(=O)Nc1ccc(-c2cnc(NCc3cccc4c3CCO4)n3cnnc23)cc1 [Example 19, N-(4-(5-(((2,3-dihydrobenzofuran-4-yl)methyl)amino)-[1,2,4]triazolo[4,3-c]pyrimidin-8-yl)phenyl)methanesulfonamide] | 0.0401
4 | Fc1ccc2c(c1CNc1ncc(-n3cccn3)c3nncn13)CCO2 [Example 237, N-((5-fluoro-2,3-dihydrobenzofuran-4-yl)methyl)-8-(1H-pyrazol-1-yl)-[1,2,4]triazolo[4,3-c]pyrimidin-5-amine] | 0.0101
5 | OCc1ccc(-c2cnc(NCc3c(F)ccc4c3CCO4)n3cnnc23)cn1 [Example 234, (5-(5-(((5-fluoro-2,3-dihydrobenzofuran-4-yl)methyl)amino)-[1,2,4]triazolo[4,3-c]pyrimidin-8-yl)pyridin-2-yl)methanol] | 0.0045
6 | Cc1cn(-c2cnc(NCc3c(F)ccc4c3CCO4)n3cnnc23)cn1 [Example 233, N-((5-fluoro-2,3-dihydrobenzofuran-4-yl)methyl)-8-(4-methyl-1H-imidazol-1-yl)-[1,2,4]triazolo[4,3-c]pyrimidin-5-amine] | 0.002
7 | CN(C)CCc1cccc(-c2cnc(NCc3cccc4c3CCO4)n3cnnc23)c1 [Example 89, N-((2,3-dihydrobenzofuran-4-yl)methyl)-8-(3-(2-(dimethylamino)ethyl)phenyl)-[1,2,4]triazolo[4,3-c]pyrimidin-5-amine] | 0.101
8 | c1ccc(-c2cnc(NCc3cccc4c3CCO4)n3cnnc23)cc1 [Example 13, N-((2,3-dihydrobenzofuran-4-yl)methyl)-8-phenyl-[1,2,4]triazolo[4,3-c]pyrimidin-5-amine] | 0.139
9 | CCOc1ncc(-c2cnc(NCc3c(F)ccc4c3CCO4)n3cnnc23)c(C)n1 [Example 226, 8-(2-ethoxy-4-methylpyrimidin-5-yl)-N-((5-fluoro-2,3-dihydrobenzofuran-4-yl)methyl)-[1,2,4]triazolo[4,3-c]pyrimidin-5-amine] | 0.0061
10 | Fc1ccc2c(c1CNc1ncc(-c3cccnc3)c3nncn13)CCO2 [Example 44, N-((5-fluoro-2,3-dihydrobenzofuran-4-yl)methyl)-8-(pyridin-3-yl)-[1,2,4]triazolo[4,3-c]pyrimidin-5-amine] | 0.0097
11 | CN(C)CCN(C)C(=O)c1ccc(-c2cnc(NCc3cccc4c3CCO4)n3cnnc23)cn1 [Example 102, 5-(5-(((2,3-dihydrobenzofuran-4-yl)methyl)amino)-[1,2,4]triazolo[4,3-c]pyrimidin-8-yl)-N-(2-(dimethylamino)ethyl)-N-methylpicolinamide] | 0.285
12 | Cc1ccncc1-c1cnc(NCc2c(F)ccc3c2CCO3)n2cnnc12 [Example 118, N-((5-fluoro-2,3-dihydrobenzofuran-4-yl)methyl)-8-(4-methylpyridin-3-yl)-[1,2,4]triazolo[4,3-c]pyrimidin-5-amine] | 0.0177
13 | CC(C)n1nccc1-c1cnc(NCc2c(F)ccc3c2CCO3)n2cnnc12 [Example 144, N-((5-fluoro-2,3-dihydrobenzofuran-4-yl)methyl)-8-(1-isopropyl-1H-pyrazol-5-yl)-[1,2,4]triazolo[4,3-c]pyrimidin-5-amine] | 0.0683
14 | Fc1ccncc1-c1cnc(NCc2cccc3c2CCO3)n2cnnc12 [Example 85, N-((2,3-dihydrobenzofuran-4-yl)methyl)-8-(4-fluoropyridin-3-yl)-[1,2,4]triazolo[4,3-c]pyrimidin-5-amine] | 0.0333
15 | Cc1cc(-c2cnc(NCc3cccc4c3CCO4)n3cnnc23)cnc1N1CCOCC1 [Example 73, N-((2,3-dihydrobenzofuran-4-yl)methyl)-8-(5-methyl-6-morpholinopyridin-3-yl)-[1,2,4]triazolo[4,3-c]pyrimidin-5-amine] | 0.332
16 | Cc1cnc(C(F)(F)F)cc1-c1cnc(NCc2c(F)ccc3c2CCO3)n2cnnc12 [Example 184, N-((5-fluoro-2,3-dihydrobenzofuran-4-yl)methyl)-8-(5-methyl-2-(trifluoromethyl)pyridin-4-yl)-[1,2,4]triazolo[4,3-c]pyrimidin-5-amine] | 0.0777
17 | Fc1ccc2c(c1CNc1ncc(-n3cncn3)c3nncn13)CCO2 [Example 241, N-((5-fluoro-2,3-dihydrobenzofuran-4-yl)methyl)-8-(1H-1,2,4-triazol-1-yl)-[1,2,4]triazolo[4,3-c]pyrimidin-5-amine] | 0.0284

Row | SMILES | IC50 [µM]
18 | CN1CCN(c2ccc(-c3cnc(NCc4cccc5occc45)n4cnnc34)cc2)CC1 [Example 209, N-(benzofuran-4-ylmethyl)-8-(4-(4-methylpiperazin-1-yl)phenyl)-[1,2,4]triazolo[4,3-c]pyrimidin-5-amine] | 0.118
19 | Cc1c(-c2cnc(NCc3c(F)ccc4c3CCO4)n3cnnc23)cnn1CCO [Example 189, 2-(4-(5-(((5-fluoro-2,3-dihydrobenzofuran-4-yl)methyl)amino)-[1,2,4]triazolo[4,3-c]pyrimidin-8-yl)-5-methyl-1H-pyrazol-1-yl)ethanol] | 0.0052
20 | N#Cc1ccc(-c2cnc(NCc3cccc4c3CCO4)n3cnnc23)cn1 [Example 62, 5-(5-(((2,3-dihydrobenzofuran-4-yl)methyl)amino)-[1,2,4]triazolo[4,3-c]pyrimidin-8-yl)picolinonitrile] | 0.339
21 | Fc1ccc2c(c1CNc1ncc(-c3ccnc(C(F)(F)F)c3)c3nncn13)CCO2 [Example 185, N-((5-fluoro-2,3-dihydrobenzofuran-4-yl)methyl)-8-(2-(trifluoromethyl)pyridin-4-yl)-[1,2,4]triazolo[4,3-c]pyrimidin-5-amine] | 0.0468
22 | Fc1ccncc1-c1cnc(NCc2c(F)ccc3c2CCO3)n2cnnc12 [Example 47, N-((5-fluoro-2,3-dihydrobenzofuran-4-yl)methyl)-8-(4-fluoropyridin-3-yl)-[1,2,4]-triazolo[4,3-c]pyrimidin-5-amine] | 0.0103
23 | CS(=O)(=O)CCOc1cncc(-c2cnc(NCc3cccc4c3CCO4)n3cnnc23)c1 [Example 106, N-((2,3-dihydrobenzofuran-4-yl)methyl)-8-(5-(2-(methylsulfonyl)ethoxy)pyridin-3-yl)-[1,2,4]triazolo[4,3-c]pyrimidin-5-amine] | 2.7
24 | CN(C)Cc1ccc(-c2cnc(NCc3cccc4c3CCO4)n3cnnc23)cc1 [Example 11, N-((2,3-dihydrobenzofuran-4-yl)methyl)-8-(4-((dimethylamino)methyl)phenyl)-[1,2,4]triazolo[4,3-c]pyrimidin-5-amine] | 0.0144
25 | O=S(=O)(c1ccc(-c2cnc(NCc3cccc4c3CCO4)n3cnnc23)cc1)C1CCNCC1 [Example 29, N-((2,3-dihydrobenzofuran-4-yl)methyl)-8-(4-(piperidin-4-ylsulfonyl)phenyl)-[1,2,4]triazolo[4,3-c]pyrimidin-5-amine] | 0.214
26 | COc1ncc(-c2cnc(NCc3c(F)ccc4c3CCO4)n3cnnc23)c(C)n1 [Example 175, N-((5-fluoro-2,3-dihydrobenzofuran-4-yl)methyl)-8-(2-methoxy-4-methylpyrimidin-5-yl)-[1,2,4]triazolo[4,3-c]pyrimidin-5-amine] | 0.0034
27 | Nc1cc(F)c(-c2cnc(NCc3cccc4c3CCO4)n3cnnc23)cn1 [Example 58, 8-(6-amino-4-fluoropyridin-3-yl)-N-((2,3-dihydrobenzofuran-4-yl)methyl)-[1,2,4]triazolo[4,3-c]pyrimidin-5-amine] | 0.124
28 | O=C1CCCN1c1cncc(-c2cnc(NCc3cccc4c3CCO4)n3cnnc23)c1 [Example 87, 1-(5-(5-(((2,3-dihydrobenzofuran-4-yl)methyl)amino)-[1,2,4]triazolo[4,3-c]pyrimidin-8-yl)pyridin-3-yl)pyrrolidin-2-one] | 0.707
29 | CS(=O)(=O)c1ccc(-c2cnc(NCc3c(F)ccc4c3CCO4)n3cnnc23)cc1 [Example 37, N-((5-fluoro-2,3-dihydrobenzofuran-4-yl)methyl)-8-(4-(methylsulfonyl)phenyl)-[1,2,4]triazolo[4,3-c]pyrimidin-5-amine] | 0.0134
30 | O=C(c1ccc(-c2cnc(NCc3c(F)ccc4c3CCO4)n3cnnc23)cn1)N1CCCC1 [Example 129, (5-(5-(((5-fluoro-2,3-dihydrobenzofuran-4-yl)methyl)amino)-[1,2,4]triazolo[4,3-c]pyrimidin-8-yl)pyridin-2-yl)(pyrrolidin-l-yl)methanone] | 0.0019
31 | CC(c1ccc(-c2cnc(NCc3c(F)ccc4c3CCO4)n3cnnc23)cc1)N1CCCC1 (stereo not shown) [Example 46, N-((5-fluoro-2,3-dihydrobenzofuran-4-yl)methyl)-8-(4-(1-(pyrrolidin-1-yl)ethyl)phenyl)-[1,2,4]triazolo[4,3-c]pyrimidin-5-amine] | 0.0048
32 | Cc1ncccc1-c1cnc(NCc2c(F)ccc3c2C(O)CO3)n2cnnc12 (stereo not shown) [Example 242, 5-fluoro-4-(((8-(2-methylpyridin-3-yl)-[1,2,4]triazolo[4,3-c]pyrimidin-5-yl)amino)methyl)-2,3-dihydrobenzofuran-3-ol] | 0.0634
33 | Cc1cnc(Cl)cc1-c1cnc(NCc2c(F)ccc3c2CCO3)n2cnnc12 [Example 228, 8-(2-chloro-5-methylpyridin-4-yl)-N-((5-fluoro-2,3-dihydrobenzofuran-4-yl)methyl)-[1,2,4]triazolo[4,3-c]pyrimidin-5-amine] | 0.0292
34 | N#Cc1ccc(-c2cnc(NCc3c(F)ccc4c3CCO4)n3cnnc23)cn1 [Example 93, 5-(5-(((5-fluoro-2,3-dihydrobenzofuran-4-yl)methyl)amino)-[1,2,4]triazolo[4,3-c]pyrimidin-8-yl)picolinonitrile] | 0.0241
